Assay results: paper PMC5876388 (Scientific Reports, 2018)
Entries after “also recorded” stand apart in the source; their conditions may differ. Read-outs that look alike come from different tables or passages of the source.

Assays:
[1] = system: Notch signaling (LS174T Notch cells); experiment: Notch signaling transcriptional activity assay (luciferase reporter, T-REx system); format: cell-based; details: for IC50: read-out: IC50 of Notch signal inhibitory activity (luciferase)
Text: We constructed a cell-based reporter assay with the T-Rex system to evaluate Notch signaling inhibitory activity. Without doxycycline (Dox), the tetracycline repressor (TetR) inhibits the expression of N-terminally FLAG-tagged mouse Notch1(1704–2531), which is 40 aa longer than NICD at the N-terminus. In the presence of Dox, Dox binds to the TetR to release the inhibition of expression of Notch1(1704–2531). Cleavage of Notch1(1704–2531) by γ-secretase generates NICD, which then translocates to the nucleus and forms a heterotrimer with RBP-J driving luciferase transcription (Fig. 2). This assay cells (LS174T Notch cells) was stably incorporated with pGL4.20 luciferase plasmid which has 12 × RBP-J binding site (12 copies of […])-β-globin promoter. Cell viability was measured using a fluorometric microculture cytotoxicity assay. […] The composition of the G. speciosa MeOH extract was partitioned successively with hexane, EtOAc, nBuOH, and water.
Figure 2 The T-REx assay system. Without Dox, expression of Notch1(1704–2531) is suppressed by TetR. The addition of Dox inactivates TetR to initiate expression of Notch1(1704–2531), which is then cleaved by endogenous γ-secretase to form NICD. NICD then translocates to the nucleus and forms a heterotrimer with RBP-J and MAML that binds to a 12× RBP-J binding site to drive luciferase expression. Luciferase activity was detected as Notch signaling pathway activity. Dox: doxycycline, TetR: tetracycline repressor, Luc.: luciferase.
Assay cells (LS174T Notch cells: 2 × 10^4 cells/well) were incubated in a 96-well white plate at 37 °C for 12 h. After incubation, 50 ng/mL Dox was added to each well to induce expression of exogenous Notch1(1704–2531) protein. After incubation at 37 °C for 12 h, the medium was changed to Dox-free medium containing individual samples. Luciferase activity was measured after treatment at 37 °C for 12 h. Cell viability was evaluated by the FMCA method at the same time. These assays were performed in 0.1% DMSO (n = 3). Error bars represent SD.
In a 96-well white plate, Cells (LS174T Notch cells; 2 × 10^4 cells per well) were cultured at 37 °C for 12 h. To express Notch1(1704–2531) protein in the cells, doxycycline (50 ng/mL) was added to each well, and cells were cultured at 37 °C for 12 h. Medium was changed to doxycycline-free medium containing each sample, then cells were incubated with at 37 °C for 12 h. A microplate luminometer (Thermo Fisher Scientific Inc., Waltham, USA) and the Bright-Glo™ Luciferase Assay System (Promega Co., Madison, USA) were used for measurement of Luciferase activity. Fluorometric Microculture Cytotoxicity Assay (FMCA) was used for measurement of cell viability of the sample-treated cells. After incubation of assay cells (2×10^4 cells per well) in a 96-well black plate at 37 °C for 24 h, samples addition was performed at the same time as the luciferase assay. The assay cells were cultures at 37 °C for 12 h. A fluorescence plate reader (Thermo Fisher Scientific Inc., Waltham, USA) was used for determination of cell viability by FMCA.

HPB-ALL cells = experiment: Cytotoxicity test, AlamarBlue
Method: HPB-ALL cells (1 × 10^4 cells per well) were incubated in 96-well black plates at 37 °C for 72 h. Media also contained different concentrations of compound. After incubation, AlamarBlue was added 10 μL per well. After incubation for 4 h, using a fluorescence plate reader, fluorescence was measured and cell viability was determined. Data are presented as the mean with SD from three independent experiments. […] The effect on protein expression was analyzed by Western blotting. β-Actin was used as internal control. (D,E) Relative protein levels of NICD and HES1 analyzed by densitometry. Data are presented as the mean with SD from three independent experiments. *P < 0.05 is considered statistically significant. P values were analyzed by Student’s t test.
HPB-ALL cells (1 × 10^4 cells per well) were incubated in 96-well black plates in 100 μL of RPMI-1640 medium with 10% FBS, Streptomycin (100 μg/mL) and Penicillin (100 unit/mL). Media also contained different concentrations of compound. Cells were incubated at 37 °C for 72 h. After incubation, AlamarBlue (00–025, DAL1025; Thermo Fisher Scientific Inc., Waltham, USA) was added 10 μL per well. After incubation for 4 h, using a fluorescence plate reader (Thermo Fisher Scientific Inc., Waltham, USA), fluorescence was measured and cell viability was determined.

[2] = Homo sapiens, LS174T Notch cells, 12 h treatment after Dox induction
[3] = LS174T Notch cells, 12 h treatment after Dox induction

Row | SMILES | IC50 [1, 2] [µM] | IC50 of Notch signal inhibitory activity (luciferase) [1, 3] | other results
1 | COc1c(O)cc2oc3cc(O)c(CC=C(C)C)c(O)c3c(=O)c2c1CC=C(C)C [Compound 1, α-mangostin] | 8 |  | 
2 | COc1cc2oc3cc(O)c(CC=C(C)C)c(O)c3c(=O)c2c(CC=C(C)C)c1O [Compound 8, 6-methoxy-γ-mangostin] | > 40 | weak activity or were inactive | 
3 | COc1c(O)cc2oc3cc(O)c(C/C=C(/C)CO)c(O)c3c(=O)c2c1C/C=C(\C)CCC=C(C)C [Compound 3, cowanol] |  |  | IC50 ([1]; Homo sapiens, LS174T, 12 h): 7.3 µM
4 | COc1c(O)cc2oc3cc4c(c(O)c3c(=O)c2c1C/C=C(\C)CCC=C(C)C)C=CC(C)(C)O4 [Compound 11, fuscaxanthone A] | 11.7 |  | 
5 | COc1c(O)cc2oc3cc(O)cc(O)c3c(=O)c2c1C/C=C(\C)CCC=C(C)C [Compound 5, rubraxanthone] | > 40 | weak activity or were inactive | 
6 | CC(C)=CCC/C(C)=C/Cc1c(O)c(O)cc2oc3cc(O)c(CC=C(C)C)c(O)c3c(=O)c12 [Compound 4, norcowanin] | 10.5 |  | 
7 | COc1cc2oc3cc(O)c(CC=C(C)C)c(O)c3c(=O)c2c(CC=C(C)C)c1OC [Compound 10, cowaxanthone B] | 15 |  | 
8 | COc1cc2c(=O)c3c(O)c(C/C=C(\C)CCC=C(C)C)c(O)cc3oc2cc1O [Compound 6, cowaxanthone] |  | weak activity or were inactive; also recorded: inactive | 
9 | C=C(C)c1cc2c(O)c3c(=O)c4c(CC=C(C)C)c(OC)c(O)cc4oc3cc2o1 [Compound 12] |  | weak activity or were inactive; also recorded: inactive | 
10 | C[C@H](NC(=O)Cc1cc(F)cc(F)c1)C(=O)N[C@H](C(=O)OC(C)(C)C)c1ccccc1 [DAPT, N-[N-(3,5-difluorophenacetyl)-L-alanyl]-S-phenylglycine t-butyl ester, reference compound] |  |  | IC50 [1, 3]: 0.12 µM; IC50 (HPB-ALL cells): > 20 µM
11 | COc1cc2oc3cc(O)c(OC)c(CC=C(C)C)c3c(=O)c2c(O)c1CC=C(C)C [Compound 7, β-mangostin] | 7.5 |  | 
12 | COc1c(O)cc2oc3cc4c(c(O)c3c(=O)c2c1CC=C(C)C)C=CC(C)(C)O4 [Compound 9, 9-hydroxycalabaxanthone] | 19.6 |  | 
